#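 Results reflect a 48-hour exposure of cells in 96-well plates to compound at five concentrations. GI50 marks 50% less growth.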 The source made the active and inactive calls. Cut-off read from the data, not from the text of the source: active = GI50 up to about 1.1 µM and inactive = higher.
# Tests used:
# Experiment in all cases: growth of human tumour cells (NCI), 48 h
# CAKI-1 = test system: CAKI-1
# OVCAR-3 = test system: OVCAR-3
# HCT-15 = test system: HCT-15
# DMS-114 = test system: DMS-114
# CCRF-CEM = test system: CCRF-CEM
# MOLT-4 = test system: MOLT-4
# RXF 631 = test system: RXF 631
# SK-OV-3 = test system: SK-OV-3
# M14 = test system: M14
# SW-620 = test system: SW-620
# K562 = test system: K562
# OVCAR-4 = test system: OVCAR-4
# DLD-1 = test system: DLD-1
# 786-0 = test system: 786-0
# SK-MEL-2 = test system: SK-MEL-2
# XF498 = test system: XF498
# U-251 = test system: U-251
# RXF 393 = test system: RXF 393
# A549 = test system: A549
# LOX IMVI = test system: LOX IMVI
# EKVX = test system: EKVX
# DMS-273 = test system: DMS-273
# UO-31 = test system: UO-31
# SNB-78 = test system: SNB-78
# OVCAR-5 = test system: OVCAR-5
# SNB-19 = test system: SNB-19
# UACC-257 = test system: UACC-257
# HOP-18 = test system: HOP-18
# COLO 205 = test system: COLO 205
# LXFL 529 = test system: LXFL 529
# SN12C = test system: SN12C
# SF-268 = test system: SF-268
# OVCAR-8 = test system: OVCAR-8
# Malme-3M = test system: Malme-3M
# HT-29 = test system: HT-29
# A498 = test system: A498
# KM-20L2 = test system: KM-20L2
# HL-60 = test system: HL-60
# TK-10 = test system: TK-10
# ACHN = test system: ACHN
# SK-MEL-28 = test system: SK-MEL-28
# UACC-62 = test system: UACC-62
# IGROV-1 = test system: IGROV-1
# HOP-62 = test system: HOP-62
# SF-295 = test system: SF-295
# M19-MEL = test system: M19-MEL
# SF-539 = test system: SF-539
# SNB-75 = test system: SNB-75
# RPMI-8226 = test system: RPMI-8226
# SK-MEL-5 = test system: SK-MEL-5
# NCI-H23 = test system: NCI-H23
# NCI-H460 = test system: NCI-H460
# HCC 2998 = test system: HCC 2998
# KM12 = test system: KM12
# HOP-92 = test system: HOP-92
# NCI-H522 = test system: NCI-H522
# HCT-116 = test system: HCT-116
# NCI-H226 = test system: NCI-H226
smiles,measurement,setting,value
CC1CCCP(=O)(c2ccccc2)CCC1 (centres undefined),GI50,CAKI-1,> 100 µM (inactive)
same,GI50,OVCAR-3,> 100 µM (inactive)
same,GI50,HCT-15,> 100 µM
same,GI50,DMS-114,> 100 µM (inactive)
same,GI50,CCRF-CEM,> 100 µM (inactive)
same,GI50,MOLT-4,> 100 µM (inactive)
same,GI50,RXF 631,> 100 µM (inactive)
same,GI50,SK-OV-3,> 100 µM (inactive)
same,GI50,M14,> 100 µM (inactive)
same,GI50,SW-620,> 100 µM (inactive)
same,GI50,K562,> 100 µM (inactive)
same,GI50,OVCAR-4,> 100 µM (inactive)
same,GI50,DLD-1,> 100 µM (inactive)
same,GI50,786-0,> 100 µM (inactive)
same,GI50,SK-MEL-2,> 100 µM (inactive)
same,GI50,XF498,> 100 µM (inactive)
same,GI50,U-251,> 100 µM (inactive)
same,GI50,RXF 393,> 100 µM (inactive)
same,GI50,A549,> 100 µM (inactive)
same,GI50,LOX IMVI,> 100 µM (inactive)
same,GI50,EKVX,> 100 µM (inactive)
same,GI50,DMS-273,> 100 µM (inactive)
same,GI50,UO-31,> 100 µM (inactive)
same,GI50,SNB-78,> 100 µM (inactive)
same,GI50,OVCAR-5,> 100 µM (inactive)
same,GI50,SNB-19,> 100 µM (inactive)
same,GI50,UACC-257,> 100 µM (inactive)
same,GI50,HOP-18,69 µM (inactive)
same,GI50,COLO 205,> 100 µM (inactive)
same,GI50,LXFL 529,> 100 µM (inactive)
same,GI50,SN12C,> 100 µM (inactive)
same,GI50,SF-268,> 100 µM (inactive)
same,GI50,OVCAR-8,> 100 µM (inactive)
same,GI50,Malme-3M,> 100 µM (inactive)
same,GI50,HT-29,> 100 µM (inactive)
same,GI50,A498,> 100 µM (inactive)
same,GI50,KM-20L2,> 100 µM (inactive)
same,GI50,HL-60,> 100 µM (inactive)
same,GI50,TK-10,> 100 µM (inactive)
same,GI50,ACHN,> 100 µM (inactive)
same,GI50,SK-MEL-28,> 100 µM (inactive)
same,GI50,UACC-62,> 100 µM (inactive)
same,GI50,IGROV-1,> 100 µM (inactive)
same,GI50,HOP-62,> 100 µM (inactive)
same,GI50,SF-295,> 100 µM (inactive)
same,GI50,M19-MEL,> 100 µM (inactive)
same,GI50,SF-539,> 100 µM (inactive)
same,GI50,SNB-75,> 100 µM (inactive)
same,GI50,RPMI-8226,> 100 µM (inactive)
same,GI50,SK-MEL-5,> 100 µM (inactive)
same,GI50,NCI-H23,> 100 µM (inactive)
same,GI50,NCI-H460,> 100 µM (inactive)
same,GI50,HCC 2998,> 100 µM (inactive)
same,GI50,KM12,> 100 µM (inactive)
N#CC(C(=O)/C(=N/NC(=O)c1ccccc1O)C(C#N)c1ccc(Br)cc1)c1ccc(Br)cc1 (centres undefined),GI50,OVCAR-3,13.5 µM (inactive)
same,GI50,HCT-15,9.08 µM
same,GI50,DMS-114,15.7 µM (inactive)
same,GI50,CCRF-CEM,2.23 µM (inactive)
same,GI50,MOLT-4,3.93 µM (inactive)
same,GI50,RXF 631,14.1 µM (inactive)
same,GI50,HOP-92,16.7 µM (inactive)
same,GI50,SK-OV-3,36.8 µM (inactive)
same,GI50,M14,14.3 µM (inactive)
same,GI50,SW-620,4.02 µM (inactive)
same,GI50,K562,5.74 µM (inactive)
same,GI50,OVCAR-4,15.6 µM (inactive)
same,GI50,DLD-1,4.79 µM (inactive)
same,GI50,786-0,12.7 µM (inactive)
same,GI50,SK-MEL-2,12.2 µM (inactive)
same,GI50,NCI-H522,11.4 µM (inactive)
same,GI50,XF498,13.7 µM (inactive)
same,GI50,U-251,11.6 µM (inactive)
same,GI50,RXF 393,4.71 µM (inactive)
same,GI50,A549,14.2 µM (inactive)
same,GI50,LOX IMVI,7.82 µM (inactive)
same,GI50,EKVX,15.6 µM (inactive)
same,GI50,DMS-273,13.4 µM (inactive)
same,GI50,UO-31,13.3 µM (inactive)
same,GI50,SNB-78,4.75 µM (inactive)
same,GI50,HCT-116,12.9 µM (inactive)
same,GI50,OVCAR-5,15.7 µM (inactive)
same,GI50,SNB-19,11.6 µM (inactive)
same,GI50,UACC-257,15.1 µM (inactive)
same,GI50,HOP-18,8.41 µM (inactive)
same,GI50,COLO 205,16.5 µM (inactive)
same,GI50,LXFL 529,3.32 µM (inactive)
same,GI50,SN12C,9.12 µM (inactive)
same,GI50,SF-268,> 10 µM (inactive)
same,GI50,OVCAR-8,6.43 µM (inactive)
same,GI50,Malme-3M,11.9 µM (inactive)
same,GI50,HT-29,13.3 µM (inactive)
same,GI50,A498,13.7 µM (inactive)
same,GI50,KM-20L2,15.4 µM (inactive)
same,GI50,TK-10,24.4 µM (inactive)
same,GI50,ACHN,13.7 µM (inactive)
same,GI50,SK-MEL-28,13.8 µM (inactive)
same,GI50,UACC-62,6.71 µM (inactive)
same,GI50,NCI-H226,5.52 µM (inactive)
same,GI50,IGROV-1,15.7 µM (inactive)
same,GI50,HOP-62,14.4 µM (inactive)
same,GI50,SF-295,14.5 µM (inactive)
same,GI50,M19-MEL,11.7 µM (inactive)
same,GI50,SF-539,10.6 µM (inactive)
same,GI50,SNB-75,2.99 µM (inactive)
same,GI50,SK-MEL-5,9.55 µM (inactive)
same,GI50,NCI-H23,4.74 µM (inactive)
same,GI50,NCI-H460,14.2 µM (inactive)
same,GI50,HCC 2998,12.1 µM (inactive)
same,GI50,KM12,12.9 µM (inactive)

# Reference: ChEMBL document CHEMBL1201862, “PubChem BioAssay data set” (2004)
